Test results published in ChEMBL document CHEMBL4382202, “1-(2-Hydroxybenzoyl)-thiosemicarbazides are promising antimicrobial agents targeting d-alanine-d-alanine ligase in bacterio” (Eur J Med Chem, 2018).
Activity calls are given as the source filed them. The calls are words filed in the database; no cut-off is given here.

Tests used:
[1] = target: T1, D-alanine--D-alanine ligase (Enterococcus faecalis (strain ATCC 700802 / V583)) (UniProt Q47758); test: Inhibition of Enterococcus faecalis JH2-2 C-terminal 6His-tagged DdlB expressed in Escherichia coli LMG194 assessed as Vmax/Km of D-Ala at 1 uM by Biomol Green reagent assay (reference value: 11.02 /min)
T1 sequence (whole entry): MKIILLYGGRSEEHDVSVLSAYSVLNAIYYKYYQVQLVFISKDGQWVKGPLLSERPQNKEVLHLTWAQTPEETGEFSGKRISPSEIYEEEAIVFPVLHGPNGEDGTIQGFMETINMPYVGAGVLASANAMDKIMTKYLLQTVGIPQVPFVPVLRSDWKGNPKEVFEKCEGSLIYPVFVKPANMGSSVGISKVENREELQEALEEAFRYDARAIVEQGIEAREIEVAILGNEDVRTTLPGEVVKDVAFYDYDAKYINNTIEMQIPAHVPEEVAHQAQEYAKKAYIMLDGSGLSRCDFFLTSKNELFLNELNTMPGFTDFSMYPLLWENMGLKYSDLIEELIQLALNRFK

[2] = target: GABA-A receptor; alpha-1/beta-2/gamma-2 (Homo sapiens) (UniProt P14867+P47870+P18507); test: Displacement of [3H]muscimol from recombinant human GABAalpha1beta2gamma2 at 10 uM after 120 mins by scintillation counting method relative to control; type: protein-complex assay
[3] = target: Peroxisome proliferator-activated receptor alpha (Homo sapiens) (UniProt Q07869); test: Displacement of [3H]WY 14643 from human recombinant PPARalpha receptor at 10 uM at 10 uM after 120 mins by scintillation counting analysis relative to control
[4] = target: DNA gyrase (Escherichia coli) (UniProt P0AES6+P0AES4); test: Inhibition of Escherichia coli DNA gyrase at 10 uM using supercoiled pBR322 DNA as substrate after 1 hr by ethidium bromide staining-based agarose gel electrophoresis relative to control; type: protein-complex assay
[5] = target: 5-hydroxytryptamine receptor 1A (Homo sapiens) (UniProt P08908); test: Displacement of [3H]8-OH-DPAT from recombinant human 5-HT1A receptor at 10 uM after 60 mins by scintillation counting analysis relative to control
Pseudomonas aeruginosa = test: Antibacterial activity against Pseudomonas aeruginosa PAO1 after 18 to 24 hrs by microdilution assay; type: functional, organism-based
[6] = target: DNA gyrase (Staphylococcus aureus) (UniProt P0A0K8+P20831); test: Inhibition of Staphylococcus aureus DNA gyrase at 10 uM using supercoiled pBR322 DNA as substrate after 1 hr by ethidium bromide staining-based agarose gel electrophoresis relative to control; type: protein-complex assay
Chain of DNA gyrase (Staphylococcus aureus) (P0A0K8 2-644 limits assumed): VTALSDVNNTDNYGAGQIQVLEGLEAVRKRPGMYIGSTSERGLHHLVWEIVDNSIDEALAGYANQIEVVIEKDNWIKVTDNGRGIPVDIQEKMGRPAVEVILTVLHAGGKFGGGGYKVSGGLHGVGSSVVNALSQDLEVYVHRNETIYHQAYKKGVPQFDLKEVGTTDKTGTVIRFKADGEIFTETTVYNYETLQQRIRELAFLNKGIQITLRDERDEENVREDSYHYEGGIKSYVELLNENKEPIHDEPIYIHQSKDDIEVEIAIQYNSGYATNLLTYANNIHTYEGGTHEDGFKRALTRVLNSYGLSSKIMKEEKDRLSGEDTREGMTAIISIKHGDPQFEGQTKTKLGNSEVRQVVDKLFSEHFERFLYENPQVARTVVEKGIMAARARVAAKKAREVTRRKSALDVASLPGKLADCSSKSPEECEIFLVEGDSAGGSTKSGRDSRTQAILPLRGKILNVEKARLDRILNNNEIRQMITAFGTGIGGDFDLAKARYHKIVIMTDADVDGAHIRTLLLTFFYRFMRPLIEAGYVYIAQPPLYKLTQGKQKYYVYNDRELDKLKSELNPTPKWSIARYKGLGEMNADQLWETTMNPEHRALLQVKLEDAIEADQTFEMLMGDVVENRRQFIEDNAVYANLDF
Chain of DNA gyrase (Staphylococcus aureus) (P20831 whole entry partner): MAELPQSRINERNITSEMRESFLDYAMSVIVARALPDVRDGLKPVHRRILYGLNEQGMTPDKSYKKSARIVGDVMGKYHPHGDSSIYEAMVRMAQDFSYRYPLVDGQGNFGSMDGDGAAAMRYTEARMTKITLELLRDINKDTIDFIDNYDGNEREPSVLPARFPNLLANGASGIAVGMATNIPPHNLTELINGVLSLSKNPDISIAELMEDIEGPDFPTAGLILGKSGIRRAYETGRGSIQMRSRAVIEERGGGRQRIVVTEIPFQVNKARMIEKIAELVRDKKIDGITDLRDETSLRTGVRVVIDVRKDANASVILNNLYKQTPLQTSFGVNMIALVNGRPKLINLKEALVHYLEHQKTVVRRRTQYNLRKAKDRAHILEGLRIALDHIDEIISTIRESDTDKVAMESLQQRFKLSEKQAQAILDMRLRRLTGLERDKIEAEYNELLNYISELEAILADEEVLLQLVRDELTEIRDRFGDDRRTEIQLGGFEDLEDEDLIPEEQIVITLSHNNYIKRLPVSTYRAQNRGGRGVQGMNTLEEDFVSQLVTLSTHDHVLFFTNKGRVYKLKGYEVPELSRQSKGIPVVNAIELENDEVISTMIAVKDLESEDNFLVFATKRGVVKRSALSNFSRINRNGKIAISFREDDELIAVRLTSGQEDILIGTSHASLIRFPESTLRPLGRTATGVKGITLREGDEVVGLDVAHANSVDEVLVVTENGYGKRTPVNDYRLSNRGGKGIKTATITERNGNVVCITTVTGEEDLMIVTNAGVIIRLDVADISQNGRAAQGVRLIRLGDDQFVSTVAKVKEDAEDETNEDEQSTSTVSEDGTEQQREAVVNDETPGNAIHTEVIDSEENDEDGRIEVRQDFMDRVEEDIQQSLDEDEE

[7] = target: T1, D-alanine--D-alanine ligase (Enterococcus faecalis (strain ATCC 700802 / V583)); test: Inhibition of Enterococcus faecalis JH2-2 C-terminal 6His-tagged DdlB expressed in Escherichia coli LMG194 assessed as Vmax/Km of ATP at 1 uM by Biomol Green reagent assay (reference value: 0.3 /min)
[8] = target: Arginase-1 (Homo sapiens) (UniProt P05089); test: Inhibition of human recombinant Arg1 at 10 uM using L-arginine as substrate after 5 mins in presence of [guanidino-14C]-L-arginine by liquid scintillation counting analysis relative to control
Escherichia coli = test: Inhibition of Escherichia coli DNA topoisomerase 4 at 10 uM using interlinked kDNA as substrate after 1 hr by ethidium bromide staining-based agarose gel electrophoresis relative to control
[9] = target: L-lactate dehydrogenase A chain (Homo sapiens) (UniProt P00338); test: Inhibition of human recombinant full-length LDHA at 10 uM using sodium pyruvate as substrate after 60 mins by resazurin dye-based assay relative to control
[10] = target: Indoleamine 2,3-dioxygenase 1 (Homo sapiens) (UniProt P14902); test: Inhibition of human IDO at 10 uM using L-tryptophan as substrate after 30 mins by Ehrlich's reagent based assay relative to control
[11] = target: Carbonic anhydrase 2 (Homo sapiens) (UniProt P00918); test: Inhibition of human carbonic anhydrase 2 at 10 uM using 4-nitrophenyl acetate as substrate after 20 mins by spectrophotometric analysis relative to control
[12] = target: cGMP-inhibited 3',5'-cyclic phosphodiesterase 3A (Homo sapiens) (UniProt Q14432); test: Inhibition of human recombinant PDE3A using [3H]cAMP at 10 uM after 20 mins by scintillation counting analysis relative to control
[13] = target: Topoisomerase IV (Staphylococcus aureus) (UniProt P0C1U9+P0C1S7); test: Inhibition of Staphylococcus aureus DNA topoisomerase 4 at 10 uM using interlinked kDNA as substrate after 1 hr by ethidium bromide staining-based agarose gel electrophoresis relative to control; type: protein-complex assay
[14] = target: T1, D-alanine--D-alanine ligase (Enterococcus faecalis (strain ATCC 700802 / V583)); test: Inhibition of Enterococcus faecalis JH2-2 C-terminal 6His-tagged DdlB expressed in Escherichia coli LMG194 assessed as Vmax/Km of D-Ala at 10 uM by Biomol Green reagent assay (reference value: 11.02 /min)
Bacillus cereus = test: Inhibition of Bacillus cereus beta-lactamase at 10 uM using nitrocefin as substrate preincubated for 15 mins followed by substrate addition and measured after 60 mins by spectrophotometric analysis relative to control
[15] = target: Angiotensin-converting enzyme (Homo sapiens) (UniProt P12821); test: Inhibition of human recombinant ACE at 10 uM using Abz-FRK(Dnp)-P-OH as substrate after 30 mins by fluorimetric analysis relative to control
Chain of Angiotensin-converting enzyme (Homo sapiens) (P12821 whole entry, the tested form may be a part): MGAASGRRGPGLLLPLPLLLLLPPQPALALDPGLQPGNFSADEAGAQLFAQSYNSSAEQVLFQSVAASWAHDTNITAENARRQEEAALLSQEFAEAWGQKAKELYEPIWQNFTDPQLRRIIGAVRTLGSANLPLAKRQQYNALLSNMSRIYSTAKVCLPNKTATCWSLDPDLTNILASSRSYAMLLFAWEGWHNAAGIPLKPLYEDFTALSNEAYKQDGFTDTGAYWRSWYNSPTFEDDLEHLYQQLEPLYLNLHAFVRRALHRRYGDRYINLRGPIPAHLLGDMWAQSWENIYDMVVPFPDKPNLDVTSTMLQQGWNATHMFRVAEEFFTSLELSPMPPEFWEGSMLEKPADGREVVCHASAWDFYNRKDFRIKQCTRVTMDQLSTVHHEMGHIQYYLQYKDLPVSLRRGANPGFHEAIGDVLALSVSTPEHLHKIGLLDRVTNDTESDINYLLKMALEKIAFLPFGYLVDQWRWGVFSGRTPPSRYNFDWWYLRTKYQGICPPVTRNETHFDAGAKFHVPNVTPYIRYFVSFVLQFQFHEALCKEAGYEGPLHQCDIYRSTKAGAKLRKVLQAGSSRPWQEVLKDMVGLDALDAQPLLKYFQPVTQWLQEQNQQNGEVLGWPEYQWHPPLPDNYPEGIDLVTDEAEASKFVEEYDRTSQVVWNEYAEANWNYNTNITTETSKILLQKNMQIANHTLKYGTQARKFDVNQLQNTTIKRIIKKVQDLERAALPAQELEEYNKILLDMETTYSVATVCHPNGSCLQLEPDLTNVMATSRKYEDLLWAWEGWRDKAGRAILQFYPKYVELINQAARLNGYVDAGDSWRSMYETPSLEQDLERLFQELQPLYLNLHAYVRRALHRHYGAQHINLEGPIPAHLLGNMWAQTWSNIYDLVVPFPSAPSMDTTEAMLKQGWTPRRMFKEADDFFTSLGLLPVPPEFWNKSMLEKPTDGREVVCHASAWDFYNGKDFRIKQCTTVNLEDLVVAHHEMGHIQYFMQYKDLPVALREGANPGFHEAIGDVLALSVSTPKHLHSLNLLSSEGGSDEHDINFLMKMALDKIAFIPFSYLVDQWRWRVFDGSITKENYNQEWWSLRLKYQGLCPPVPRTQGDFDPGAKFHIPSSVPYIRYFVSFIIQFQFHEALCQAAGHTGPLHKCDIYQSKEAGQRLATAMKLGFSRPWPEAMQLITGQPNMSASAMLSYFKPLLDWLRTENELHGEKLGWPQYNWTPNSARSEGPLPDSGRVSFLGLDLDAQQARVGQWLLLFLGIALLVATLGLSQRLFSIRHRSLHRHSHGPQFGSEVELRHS

[16] = target: D-3-phosphoglycerate dehydrogenase (Homo sapiens) (UniProt O43175); test: Inhibition of human recombinant C-terminal His-tagged PHGDH (1 to 533 residues) expressed in Escherichia coli at 10 uM using 3-phosphoglycerate as substrate relative to control
Chain of D-3-phosphoglycerate dehydrogenase (Homo sapiens) (O43175 whole entry, the tested form may be a part): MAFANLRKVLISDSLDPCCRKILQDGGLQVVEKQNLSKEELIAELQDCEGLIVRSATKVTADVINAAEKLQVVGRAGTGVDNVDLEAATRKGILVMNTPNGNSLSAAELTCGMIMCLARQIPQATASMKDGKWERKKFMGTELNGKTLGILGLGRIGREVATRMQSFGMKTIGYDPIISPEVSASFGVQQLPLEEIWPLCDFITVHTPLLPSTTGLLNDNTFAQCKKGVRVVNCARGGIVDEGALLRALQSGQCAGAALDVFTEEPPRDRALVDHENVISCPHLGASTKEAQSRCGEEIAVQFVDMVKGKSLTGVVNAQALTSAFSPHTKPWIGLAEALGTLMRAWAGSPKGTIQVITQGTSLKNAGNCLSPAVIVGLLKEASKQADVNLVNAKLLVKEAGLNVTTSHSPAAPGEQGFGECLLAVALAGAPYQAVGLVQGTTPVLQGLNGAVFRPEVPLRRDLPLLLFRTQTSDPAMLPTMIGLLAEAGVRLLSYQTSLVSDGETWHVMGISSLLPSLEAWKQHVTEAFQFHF

Staphylococcus aureus = test: Inhibition of Ddl in Staphylococcus aureus ATCC 25923 assessed as increase in [D-Ala]/[D-Ala-D-Ala] ratio at 2 times MIC after 30 mins by LC-MS/MS analysis
[17] = target: Prothrombin (Homo sapiens) (UniProt P00734); test: Inhibition of human thrombin at 10 uM using Z-GPR-AMC as substrate after 30 mins by fluorimetric analysis relative to control
[18] = target: Acetylcholinesterase (Homo sapiens) (UniProt P22303); test: Inhibition of human recombinant acetylcholinesterase at 10 uM using acetylthiocholine as substrate after 30 mins by spectrophotometric analysis relative to control
Chain of Acetylcholinesterase (Homo sapiens) (P22303 whole entry): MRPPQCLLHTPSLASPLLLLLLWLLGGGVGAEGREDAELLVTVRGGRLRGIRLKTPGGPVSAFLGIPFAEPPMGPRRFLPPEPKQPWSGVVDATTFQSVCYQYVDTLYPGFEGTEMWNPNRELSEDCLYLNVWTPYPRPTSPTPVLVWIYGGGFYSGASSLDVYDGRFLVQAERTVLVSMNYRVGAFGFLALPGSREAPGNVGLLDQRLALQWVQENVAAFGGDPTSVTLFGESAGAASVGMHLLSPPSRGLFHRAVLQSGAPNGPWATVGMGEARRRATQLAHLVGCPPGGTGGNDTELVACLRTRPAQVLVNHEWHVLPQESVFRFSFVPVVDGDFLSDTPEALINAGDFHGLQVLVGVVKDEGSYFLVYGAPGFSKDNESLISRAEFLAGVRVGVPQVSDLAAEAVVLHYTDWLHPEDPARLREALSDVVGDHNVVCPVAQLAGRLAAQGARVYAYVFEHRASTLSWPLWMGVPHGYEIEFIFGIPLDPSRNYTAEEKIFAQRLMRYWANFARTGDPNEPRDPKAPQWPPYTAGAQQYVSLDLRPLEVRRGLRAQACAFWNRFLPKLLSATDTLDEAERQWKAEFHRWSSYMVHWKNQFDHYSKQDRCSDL

[19] = target: Cannabinoid receptor 1 (Homo sapiens) (UniProt P21554); test: Displacement of [3H]CP 55940 from human recombinant CB1 receptor at 10 uM after 120 mins by scintillation counting analysis relative to control
Chain of Cannabinoid receptor 1 (Homo sapiens) (P21554 whole entry): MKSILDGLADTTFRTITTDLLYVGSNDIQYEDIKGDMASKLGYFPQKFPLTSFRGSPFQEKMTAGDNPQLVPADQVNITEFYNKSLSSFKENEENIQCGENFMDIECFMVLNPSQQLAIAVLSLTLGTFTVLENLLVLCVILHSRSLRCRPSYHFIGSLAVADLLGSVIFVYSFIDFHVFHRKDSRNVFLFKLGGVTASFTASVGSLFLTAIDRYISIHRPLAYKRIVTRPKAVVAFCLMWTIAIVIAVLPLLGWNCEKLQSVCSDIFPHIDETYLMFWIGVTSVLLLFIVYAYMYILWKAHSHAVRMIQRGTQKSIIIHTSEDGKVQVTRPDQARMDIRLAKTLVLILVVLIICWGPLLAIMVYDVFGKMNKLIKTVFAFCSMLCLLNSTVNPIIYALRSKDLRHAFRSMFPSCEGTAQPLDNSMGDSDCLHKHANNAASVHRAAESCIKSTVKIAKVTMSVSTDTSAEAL

[20] = target: T1, D-alanine--D-alanine ligase (Enterococcus faecalis (strain ATCC 700802 / V583)); test: Reversible inhibition of Enterococcus faecalis JH2-2 C-terminal 6His-tagged DdlB expressed in Escherichia coli LMG194 at 3 uM preincubated for 30 mins followed by 10 times dilution followed by 20 mins incubation with substrate by Biomol Green reagent assay
[21] = target: Tyrosine-protein kinase Lck (Homo sapiens) (UniProt P06239); test: Inhibition of human recombinant Lck at 10 uM using Ulight-Poly GAT[EAY(1:1:1)]n as substrate after 10 mins by LANCE analysis relative to control
Chain of Tyrosine-protein kinase Lck (Homo sapiens) (P06239 2-509 limits assumed): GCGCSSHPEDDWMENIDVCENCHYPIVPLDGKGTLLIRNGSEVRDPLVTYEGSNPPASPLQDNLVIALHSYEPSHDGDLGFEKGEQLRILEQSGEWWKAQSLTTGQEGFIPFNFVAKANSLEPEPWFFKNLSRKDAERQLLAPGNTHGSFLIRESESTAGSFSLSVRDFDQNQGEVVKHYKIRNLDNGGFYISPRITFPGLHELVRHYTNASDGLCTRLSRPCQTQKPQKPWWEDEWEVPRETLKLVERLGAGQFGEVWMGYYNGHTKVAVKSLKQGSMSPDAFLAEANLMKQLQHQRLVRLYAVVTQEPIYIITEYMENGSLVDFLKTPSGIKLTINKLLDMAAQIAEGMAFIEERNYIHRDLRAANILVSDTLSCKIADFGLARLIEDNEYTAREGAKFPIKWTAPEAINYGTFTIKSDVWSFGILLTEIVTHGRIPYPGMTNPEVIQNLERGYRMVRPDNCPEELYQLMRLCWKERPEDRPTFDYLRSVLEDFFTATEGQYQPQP

## O=C(NNC(=S)Nc1ccc(Cl)c(Cl)c1)c1ccccc1O
[1]
  Vmax/Km: 6.93 min⁻¹
[2]
  inhibition: < 30%
[3]
  inhibition: < 30%
[4]
  inhibition: < 30%
[5]
  inhibition: < 30%
Pseudomonas aeruginosa
  MIC: inactive
[6]
  inhibition: < 30%
[7]
  Vmax/Km: 0.33 min⁻¹
[8]
  inhibition: < 30%
Escherichia coli
  inhibition: < 30%
[9]
  inhibition: < 30%
[10]
  inhibition: < 30%
[11]
  inhibition: < 30%
[12]
  inhibition: < 30%
[13]
  inhibition: < 30%
[14]
  Vmax/Km: 4.69 min⁻¹
Bacillus cereus
  inhibition: < 30%
[15]
  inhibition: < 30%
[16]
  inhibition: < 30%
Staphylococcus aureus
  inhibition: Active
[17]
  inhibition: < 30%
[18]
  inhibition: < 30%
[19]
  inhibition: < 30%
[20]
  inhibition: Active
[21]
  inhibition: < 30%
